# ChEMBL document CHEMBL5120966, “Spicatulides A-G, Phenolic-Monoterpenoid Hybrids from Chloranthus spicatus” (J Nat Prod, 2022)
# Columns and labels:
# HepG2 [1] = test: Inhibition of lipogenesis in human HepG2 cells assessed as reduction in sterol synthesis; assay type: functional, cell-based; conditions: dose 12.5-50 µM, DDE = dose-dependent effect
# HepG2 [2] = test: Inhibition of lipogenesis in human HepG2 cells assessed as reduction in fatty acids synthesis; assay type: functional, cell-based; conditions: dose 0.1-1 µM, DDE = dose-dependent effect
Structure (SMILES),dose-dependent inhibition (qualitative) (HepG2 [1]),inhibition (HepG2 [2])
COC(=O)Cc1cc(O)cc2c1O[C@@](C)(CCC=C(C)C)C=C2,Dde,–
COC(=O)[C@H]1c2cc(O)cc(C/C=C(\C)CCC=C(C)C)c2O[C@@]2(C)[C@@H](O)C=C(C(C)C)C[C@@H]12,Dde,–
COC(=O)C[C@@]1(C/C=C(\C)CCC=C(C)C)CC(=O)C=C[C@@H]1O,Dde,Dde
COC(=O)[C@@]1(O)c2cc(O)cc(C/C=C(\C)CCC=C(C)C)c2O[C@@]2(C)C=C[C@H](C(C)C)C[C@@H]12,Dde,–
